{"source": "patent US6814967B2", "about": "“Antibodies to cortistatin: neuropeptides, compositions and methods” (The Scripps Research Institute, priority 1996, dated 2004)", "key": {"[1]": {"test_system": "voltage-dependent potassium M current (IM)", "experiment": "Voltage-clamp recording of M current (IM) relaxation in CA1 neurons", "format": "cell-based, rat", "set-up": "dose or concentration left out as unconfirmed", "conditions": "7 minutes superfusion; CA1 neuron held at −43 mV", "text": "To determine the mechanism of the cortistatin-induced inhibition, we assessed the effect of cortistatin on the M current (IM), a non-inactivating voltage-dependent potassium current seen in hippocampal neurons as described by Halliwell et al., Brain Res., 250:71-92 (1982).\nIn voltage clamp assays, the IM relaxation was observed by applying hyperpolarizing steps (5 to 25 mV) from a holding potential of −43 to −48 mV."}, "[2]": {"test_system": "hippocampal CA1 pyramidal cells", "experiment": "Current-clamp intracellular recording in hippocampal slices", "format": "cell-based, rat", "conditions": "for time to maximum steady effect (time-to-peak) after onset of the response: hippocampal slice CA1 neurons, superfusion", "method": "Somatostatin is known to hyperpolarize central neurons by increasing potassium conductances as described by Inoue et al., J. Physiol., 407:177-198 (1988), including the voltage-dependent potassium M current (see Moore et al., Science, 239:278-280 (1988) and Jacquin et al., Proc. Natl. Acad. Sci., USA, 85:948-952 (1988)). To complete the characterization of the physiological role of cortistatin, assays were performed to determine whether cortistatin had somatostatin-like effects on hippocampal neurons by means of current- and voltage-clamp recordings in the hippocampal slice preparation.\nIntracellular recordings were obtained in rat hippocampal slices using sharp glass micropipettes as previously described by Schweitzer et al., J. Neurosci., 13:2033-2049 (1993). Recordings were made from 11 hippocampal CA1 pyramidal cells with an average resting membrane potential of −70 Å 1 mV (mean Å s.e.m.) and action potential of 103 Å 2 mV. Current-clamp recording of a CA1 neuron manually depolarized to −65 mV (resting membrane potential was −70 mV) to elicit action potential firing (upward deflections, truncated) is shown in FIG. 6A.\nSuperfusion of […] cortistatin-14 peptide (bar above record), prepared as described in Example 3, like somatostatin-14, hyperpolarized these neurons (10 of 11 cells), in association with inhibition of action potential firing, followed by recovery to control levels upon washout of the peptide. Unlike somatostatin, the cortistatin-14-mediated effect developed slowly, reaching a maximum steady effect six to eight minutes after the onset of the response. This contrasted with the time-to-peak of somatostatin′s effect on these neurons under the same experimental conditions that was much shorter (2-3 minutes)."}, "[3]": {"test_system": "somatostatin receptors on GH4 pituitary cells", "experiment": "Displacement of 125I-somatostatin-14 bound to GH4 pituitary cells", "format": "binding", "conditions": "for Kd: GH4 pituitary cells, four independent experiments, read-out: estimated Kd, displacement of 125I-somatostatin-14 binding; for displacement of 125I-somatostatin: GH4 cells, control peptides", "method": "To determine the binding specificity of cortistatin and in view of its similarity to somatostatin, assays to assess the binding of chemically synthesized, linear cortistatin-14 peptide prepared in Example 2 to somatostatin receptors on GH4 pituitary cells were performed.\nGH4 cells, obtained from Dr. Kaare M. Gautvik (University of Oslo) or ATCC, were grown in MEM medium with 12% fetal calf serum in 6-well plates at 10^6 cells/ml. Each well then received 10^6 cpm/ml of ^125I somatostatin-14 (NEN, DuPont, Wilmington, Del.) alone or with increasing concentrations of somatostatin-14 peptide (Sigma) or cortistatin-14 peptide (95%, purified by reverse phase HPLC ranging from 10^−10 M to 10^−6 M. Aprotinin and leupeptin (Sigma; […]) was included as it reduced non-specific binding to 20% of total bound radioactivity. The binding of ^125I somatostatin in the presence of 10^−7 M somatostatin was considered as unspecific binding as described by Schonbrunn et al., J. Biol. Chem., 235:6473-6483 (1978)."}, "[4]": {"test_system": "SSTR 2-5", "experiment": "Binding studies to cloned somatostatin receptors", "conditions": "relative to somatostatin"}, "[5]": {"test_system": "CA1 pyramidal neurons", "experiment": "Population spike amplitudes in CA1 in vivo, iontophoretic application, anesthetized rats", "set-up": "species or system rat", "conditions": "microiontophoretic application, 1 mg/ml in saline; half-maximal and maximal stimulation; P<0.05", "method": "The inhibitory effects of cortistatin on the excitability of CA1 pyramidal neurons as viewed by population spike (PS) amplitudes was paralleled in vivo in the anesthetized preparation. For the in vivo studies, male Sprague-Dawley rats were anesthetized with halothane (0.9-1.1%). The commisural pathway was stimulated and elicited field potentials in the CA1 region essentially as described by Steffensen et al., Brain Res., 538:46-53 (1991). Cortistatin (1 mg/ml) was dissolved in saline and administered iontophoretically through one barrel of a multibarreled micropipette. […] Asterisks represent significance levels at P<0.05. The data was compiled with software (LabView Instruments, National Instruments, Austin, Tex.) as described by Steffensen et al., Brain Res., 538:46-53 (1991).\nStimulation of the monosynaptic afferent input to the CA1 region evoked a characteristic population spike (PS) that represents the synchronous firing of pyramidal cells, superimposed on a field synaptic potential waveform as described by Anderson et al., Exp. Brain Res., 13:208-221 (1971)."}, "[6]": {"biological_target": "somatostatin receptor 1 (SSTR1) (Homo sapiens, UniProt P30872)", "sequence (P30872 whole entry, species assumed)": "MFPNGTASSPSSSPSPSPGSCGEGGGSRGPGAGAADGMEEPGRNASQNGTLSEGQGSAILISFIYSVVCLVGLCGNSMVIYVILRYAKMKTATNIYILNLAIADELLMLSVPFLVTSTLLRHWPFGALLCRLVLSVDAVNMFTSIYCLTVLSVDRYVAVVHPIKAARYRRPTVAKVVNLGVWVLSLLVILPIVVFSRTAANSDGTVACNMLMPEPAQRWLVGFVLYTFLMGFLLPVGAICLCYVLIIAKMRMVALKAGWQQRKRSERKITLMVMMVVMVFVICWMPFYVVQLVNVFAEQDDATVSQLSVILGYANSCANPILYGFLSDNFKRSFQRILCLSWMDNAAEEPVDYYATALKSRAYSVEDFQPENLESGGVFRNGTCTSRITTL", "experiment": "Binding studies to cloned somatostatin receptors"}, "[7]": {"test_system": "endogenous somatostatin receptors expressed by GH4 cells", "experiment": "cAMP assay in GH4 cells stimulated with VIP or TRH", "format": "cell-based", "method": "To investigate whether cortistatin modulates somatostatin receptor activation, the concentration of cyclic AMP (cAMP) was determined following stimulation of GH4 cells with VIP or TRH in the presence or absence of either cortistatin or somatostatin.\nFor the cAMP assays, GH4 cells were grown under the same conditions as for the binding assays. The cells were washed with MEM without serum, but containing leupeptin, aprotinin and 1 mM 3-isobutyl-methyl-xantine (IBMX). The cells were pretreated with somatostatin-14 and cortistatin-14 for 15 minutes before VIP at 10^−6 M was added or TRH at 10^−7 M. To each well, ^3H cyclic AMP was added before the content was removed, to calculate recovery. For cAMP measurements, a RIA kit (Amersham, Arlington Heights, Ill.) was used according to the instructions of the manufacturer. Each time point represents 2-4 replicates and the experiments were carried out twice."}, "[8]": {"test_system": "sleep-wake cycle of the rat", "experiment": "Intracerebroventricular administration, EEG and sleep-wake cycle of the rat", "format": "in vivo", "text": "As cortistatin is expressed in interneurons located in the cerebral cortex and hippocampus, its effects on cortical measures of neuronal excitability was next determined in vivo. Up to 6 nmoles of HPLC-purified synthetic cortistatin-14 peptide prepared in Example 3 were infused into the brain ventricles of rats (n=5) and recorded the electroencephalogram (EEG) for four hours after peptide injection. […] Standard methodologies for chronic electrophysiological preparation and data acquisition were used. Procedures for EEG recordings and PP studies are as described by Prospero-Garcia et al., Pharmacol. Biochem. Behav., 49:413 (1994) and Steffensen et al., Brain Res., 652:149 (1994).\nFIGS. 7A-1, 7A-2, 7A-3 and 7A-4 show the effects of the intracerebroventricular administration of cortistatin on the sleep-wake cycle of the rat. FIGS. 7A-1, 7A-2, 7A-3 and 7A-4 respectively illustrate wakefulness, slow-wave sleep 1, slow-wave sleep 2 and REM sleep. The effects of the sleep cycle were assessed with cortistatin-14 dosages at 100 ng, 500 ng, […] as plotted from left to right in the bar graphs as shown against saline control. Asterisks represent significance levels of P<0.05; ANOVA."}, "[9]": {"test_system": "hippocampal CA1 neurons", "experiment": "Paired-pulse (PP) responses in CA1 neurons in vivo, iontophoretic application", "set-up": "species or system rat", "conditions": "for effect on PP responses (PP inhibition) in CA1: applied alone iontophoretically, ACh 0.9 M, somatostatin 1.5 mM, 80 ms interstimulus interval", "description": "Stimulation intensity was adjusted after drug treatment to achieve control PS amplitudes before performing PP studies."}, "[10]": {"test_system": "cerebral cortex (visual cortex) local EEG", "experiment": "Local EEG activity in visual cortex of anesthetized rats, microiontophoretic application", "format": "in vivo, rat", "method": "To investigate further whether cortistatin also interacts with cholinergic systems that regulate cortical function, the effects of cortistatin on ACh-induced desynchronization of EEG in the cerebral cortex of anesthetized rats was determined. Thus, ACh and cortistatin was microiontophoretically (100-250 nA) applied on local EEG activity recorded in the visual cortex. For the data shown in FIG. 7G, the results from the experimental groups were derived from averaged EEG spectral activity determinations and expressed as means Å s.e.m. (Asterisk represents significance levels P<0.05 from baseline; two asterisks represent significance levels P<0.05 from ACh; ANOVA)."}, "[11]": {"conditions": "peptide alone at 10^−6 M, compared to control"}}}
{"compound": "14-residue peptide of SEQ ID NO 8 (PCKNFFWKTFSSCK), same sequence for rat and mouse, chemically synthesized [cortistatin-14]", "values": [{"measurement": "increase of the amplitude of the IM relaxation", "setting": "[1]", "result": 60, "unit": "%"}, {"measurement": "time to maximum steady effect (time-to-peak) after onset of the response", "setting": "[2]", "result": "six to eight"}, {"measurement": "effect on membrane potential of CA1 neurons", "setting": "[2]; superfusion of 1 M, 10 of 11 cells, inhibition of action potential firing, recovery on washout", "result": "hyperpolarized"}, {"measurement": "Kd", "setting": "[3]", "result": 5, "unit": "nM"}, {"measurement": "affinity for SSTR 2-5", "setting": "[4]", "result": "far lesser affinity"}, {"measurement": "population spike (PS) amplitudes", "setting": "[5]", "result": "significantly decreased"}, {"measurement": "affinity for somatostatin receptor 1 (SSTR1)", "setting": "[6]", "result": "comparable to somatostatin"}, {"measurement": "intracellular concentration of cAMP", "setting": "[7]; [11]", "result": "no effect"}, {"measurement": "EEG cortical slow waves (1-4 Hz)", "setting": "[8]; infused into brain ventricles of rats", "result": "dramatic increase"}, {"measurement": "spontaneous behavior", "setting": "[8]; infused into brain ventricles of rats, compared to saline-injected rats", "result": "clear hypoactive behavior"}, {"measurement": "share of the four hour recording time in slow-wave sleep", "setting": "[8]; intracerebroventricular, 40% in saline-treated control animals", "result": "up to 75%"}, {"measurement": "paradoxical (REM) sleep", "setting": "[8]; intracerebroventricular, highest dose", "result": "significant reduction"}, {"measurement": "effect on PP responses (PP inhibition) in CA1", "setting": "[9]", "result": "no significant effects"}, {"measurement": "effect on the ACh-induced reduction of PP inhibition", "setting": "[9]; simultaneous iontophoretic application with ACh, P<0.05", "result": "completely antagonized"}, {"measurement": "local EEG (averaged EEG power spectra)", "setting": "[10]; applied alone, 100-250 nA, visual cortex, anesthetized rats", "result": "not different from baseline"}, {"measurement": "effect of ACh on local EEG (increase in fast frequency activity)", "setting": "[10]; simultaneous electrophoretic application with ACh", "result": "effectively prevented"}]}
{"compound": "C[C@H](N)C(=O)NCC(=O)N[C@H]1CSSC[C@@H](C(=O)O)NC(=O)[C@H](CO)NC(=O)[C@H]([C@@H](C)O)NC(=O)[C@H](Cc2ccccc2)NC(=O)[C@H]([C@@H](C)O)NC(=O)[C@H](CCCCN)NC(=O)[C@H](Cc2c[nH]c3ccccc23)NC(=O)[C@H](Cc2ccccc2)NC(=O)[C@H](Cc2ccccc2)NC(=O)[C@H](CC(N)=O)NC(=O)[C@H](CCCCN)NC1=O", "note": "[somatostatin-14, reference compound]", "values": [{"measurement": "time to maximum steady effect (time-to-peak) after onset of the response", "setting": "[2]", "result": "2 to 3", "unit": "min"}, {"measurement": "Kd", "setting": "[3]", "result": 5, "unit": "nM"}, {"measurement": "intracellular concentration of cAMP", "setting": "[7]; [11]", "result": "no effect"}, {"measurement": "effect on PP responses (PP inhibition) in CA1", "setting": "[9]", "result": "markedly decreased PP inhibition"}]}
{"compound": "thryoid releasing hormone (QHP) [TRH, control peptide and cAMP stimulator (Calbiochem)]", "values": [{"measurement": "displacement of 125I-somatostatin", "setting": "[3]", "result": "did not show any displacement"}, {"measurement": "intracellular concentration of cAMP", "setting": "[7]; peptide alone at 10^−7 M", "result": "increased"}]}
{"compound": "vasoactive intestinal peptide (HSDAVFTDNYTRLRKQMAVKKYLNSILN) [VIP, control peptide and cAMP stimulator (Bachem)]", "values": [{"measurement": "displacement of 125I-somatostatin", "setting": "[3]", "result": "did not show any displacement"}, {"measurement": "intracellular concentration of cAMP", "setting": "[7]; [11]", "result": "increased"}]}
